Data on 33 molecules can be found in the RepoRT retention time repository (doi:10.1016/j.aca.2011.01.006).

The data set can be described thus: Waters SunFire C18, 150 × 2.1 mm, 3.5 µm, 35 °C, 0.3 mL/min, estimated dead time 1.1 min; A: water + 0.1% formic acid; B: acetonitrile + 0.1% formic acid; gradient (min/%B) 0/20 5/20 20/50 25/100. Conditions: stereoisomer not certain.
Turning to `COC(=O)C(c1ccccc1)C1CCCCN1` (stereo not drawn), the LC retention time was 1.8 min. As for `O=C1NC(=O)C(c2ccccc2)(c2ccccc2)N1`, the LC retention time is 14.7 min. On to `COc1cccc(C2(O)CCCCC2CN(C)C)c1` (stereo not drawn), for which the LC retention time was 1.9 min.

As for `CN(C)CCOC(c1ccccc1)c1ccccc1`, the LC retention time is 5.1 min. The value for `Cn1c(=O)c2[nH]cnc2n(C)c1=O` was 1.9 min. For `CN(C)CCC=C1c2ccccc2CCc2ccccc21`, the LC retention time was 10.3 min. For `CCOC(=O)C1(c2ccccc2)CCN(C)CC1`, the LC retention time is 2.2 min. The same measure for `C[N+]12CCC(CC1)C(OC(=O)C(O)(c1ccccc1)c1ccccc1)C2` (stereo not drawn): 3.4 min; for `CN1CCOC(c2ccccc2)c2ccccc2C1` (stereo not drawn): 2.9 min; for `Cc1cc(NC(=O)C2=C(O)c3ccccc3S(=O)(=O)N2C)no1`: 21.4 min. Regarding `CC12C=CC(=O)C=C1CCC1C2C(O)CC2(C)C1CCC2(O)C(=O)CO` (stereo not drawn), the LC retention time was 12.3 min. Take `CC12C=CC(=O)C=C1CCC1C2C(=O)CC2(C)C1CCC2(O)C(=O)CO` (stereo not drawn): the LC retention time is 12.4 min. The value for `CCN(CC)C(=O)c1cccnc1` was 2.4 min; that for `CN1C(C(=O)Nc2ccccn2)=C(O)c2ccccc2S1(=O)=O` was 15.2 min; that for `CCN(CC)CCOCCOC(=O)C1(c2ccccc2)CCCC1` was 10 min. On to `CN(C)CCN(Cc1ccccc1)c1ccccn1`, for which the LC retention time is 1.9 min. The value for `Cn1c(=O)c2c(ncn2CCO)n(C)c1=O` was 2 min. Take `Cn1c(=O)c2c(ncn2CC(O)CO)n(C)c1=O` (stereo not drawn): the LC retention time was 1.9 min. The value for `CC(C)c1c(CN(C)C(C)Cc2ccccc2)n(C)n(-c2ccccc2)c1=O` (stereo not drawn) was 10.8 min; that for `Cc1cc(=O)n(-c2ccccc2)n1C` was 4.1 min; that for `O=C1NC(=O)N(N=Cc2ccc(-c3ccc([N+](=O)[O-])cc3)o2)C1O` (stereo not drawn) was 15.2 min.

`Cc1cccc(C)c1NC1=NCCCS1`: the LC retention time was 1.8 min. `CCC1(c2ccccc2)C(=O)NCNC1=O`: the LC retention time was 4.3 min. For `COc1cc(OC)c(C(=O)CCCN2CCCC2)c(OC)c1`, the LC retention time is 2 min. `CCCCNc1ccc(C(=O)OCCN(C)C)cc1`: the LC retention time was 4.9 min.

As for `C[N+]1(C)CCCC(OC(=O)C(O)(c2ccccc2)c2ccccc2)C1` (stereo not drawn), the LC retention time is 3 min. With `COC(=O)C1CC2=CC(=O)CCC2(C)C23OC2CC2(C)C(CCC24CCC(=O)O4)C13` (stereo not drawn), the LC retention time was 15.1 min. Regarding `C=CCC1(O)CCC2C3CCC4=CC(=O)CCC4=C3C=CC21C` (stereo not drawn), the LC retention time is 22.1 min. For `CCN(CC)CCOC(=O)C(Cc1cccc2ccccc12)CC1CCCO1` (stereo not drawn), the LC retention time was 11.1 min. As to `Cc1cccc(C(C)c2cnc[nH]2)c1C` (stereo not drawn), the LC retention time was 2.8 min. As for `Cc1cccc(C)c1NC(=O)C1CCCCN1C` (stereo not drawn), the LC retention time was 1.8 min. The value for `CC(=O)c1ccc2c(c1)N(CCCN(C)C)c1ccccc1S2` was 8.7 min; that for `CC(C(=O)O)c1cccc(C(=O)c2ccccc2)c1` (stereo not drawn) was 19.3 min.
